# Measured values reported in PubChem BioAssay AID256 (DTP/NCI, 2004).
# Values joined by “and” are separate entries in the source; they are usually repeats but may differ in a detail not shown here. Equal values may be shown once. Inconclusive results and toxic doses are left out.
# Tested on: CD2F1 mice, L1210 leukemia ip, survival T/C
# Assay: NCI In Vivo Anticancer Drug Screen. Data for tumor model L1210 Leukemia (intraperitoneal) in CD2F1 (CDF1) mice
# Conditions: higher = longer survival
# How it was run: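 Implant tumor; dose compound or vehicle; measure endpoint in both groups; report treated divided by control.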
# [1] = endpoint: mean survival time, dose: 100.0 mg/kg/injection, schedule: Q04DX003 (ip), vehicle: saline with Tween-80
# [2] = endpoint: mean survival time, dose: 200.0 mg/kg/injection, schedule: Q04DX003 (ip), vehicle: saline with Tween-80
# [3] = endpoint: mean survival time, dose: 400.0 mg/kg/injection, schedule: Q04DX003 (ip), vehicle: saline with Tween-80
# [4] = endpoint: mean survival time, dose: 25.0 mg/kg/injection, schedule: Q04DX003 (ip), vehicle: saline with Tween-80
# [5] = endpoint: mean survival time, dose: 50.0 mg/kg/injection, schedule: Q04DX003 (ip), vehicle: saline with Tween-80
# [6] = endpoint: mean survival time, dose: 200.0 mg/kg/injection, schedule: Q04DX003 (ip), vehicle: saline
# [7] = endpoint: mean survival time, dose: 400.0 mg/kg/injection, schedule: Q04DX003 (ip), vehicle: saline
# [8] = endpoint: mean survival time, dose: 100.0 mg/kg/injection, schedule: Q01DX001 (ip), vehicle: saline with Tween-80
# [9] = endpoint: mean survival time, dose: 100.0 mg/kg/injection, schedule: Q01DX009 (ip), vehicle: saline with Tween-80
# [10] = endpoint: mean survival time, dose: 200.0 mg/kg/injection, schedule: Q01DX001 (ip), vehicle: saline with Tween-80
# [11] = endpoint: mean survival time, dose: 200.0 mg/kg/injection, schedule: Q01DX009 (ip), vehicle: saline with Tween-80
# [12] = endpoint: mean survival time, dose: 400.0 mg/kg/injection, schedule: Q01DX001 (ip), vehicle: saline with Tween-80
# [13] = endpoint: mean survival time, dose: 100.0 mg/kg/injection, schedule: Q04DX003 (ip), vehicle: saline
# [14] = endpoint: mean survival time, dose: 25.0 mg/kg/injection, schedule: Q01DX009 (ip), vehicle: saline with Tween-80
# [15] = endpoint: mean survival time, dose: 50.0 mg/kg/injection, schedule: Q01DX009 (ip), vehicle: saline with Tween-80
# [16] = endpoint: mean survival time, dose: 37.5 mg/kg/injection, schedule: Q01DX009 (ip), vehicle: saline
smiles,measurement,setting,value
C1CCC(C2CCCC[N-]2)[N-]C1.C1CCC(C2CCCC[N-]2)[N-]C1.O=N[O-].O=N[O-].[Ru+4] (centres undefined),T/C,"endpoint: mean survival time, dose: 3.13 mg/kg/injection, schedule: Q04DX003 (ip), vehicle: distilled water + Tween-80",90 % of control
same,T/C,"endpoint: mean survival time, dose: 6.25 mg/kg/injection, schedule: Q04DX003 (ip), vehicle: distilled water + Tween-80",95 % of control
same,T/C,"endpoint: mean survival time, dose: 12.5 mg/kg/injection, schedule: Q04DX003 (ip), vehicle: distilled water + Tween-80",95 % of control
same,T/C,"endpoint: mean survival time, dose: 25.0 mg/kg/injection, schedule: Q04DX003 (ip), vehicle: distilled water + Tween-80",93 % of control
same,T/C,"endpoint: mean survival time, dose: 50.0 mg/kg/injection, schedule: Q04DX003 (ip), vehicle: distilled water + Tween-80",92 % of control
same,T/C,"endpoint: mean survival time, dose: 100.0 mg/kg/injection, schedule: Q04DX003 (ip), vehicle: distilled water + Tween-80",90 % of control
same,T/C,"endpoint: mean survival time, dose: 200.0 mg/kg/injection, schedule: Q04DX003 (ip), vehicle: distilled water + Tween-80",90 % of control
CCOC1(C(C)C)CCC(C)/C(=C\c2ccc([N+](=O)[O-])cc2)C1=O (centres undefined),T/C,[1],93 % of control
same,T/C,[2],93 % of control
same,T/C,[3],96 % of control
CC1=Nc2ccccc2N2C1=CC1=C(C(=O)c3cc4ccccc4cc3C1=O)C2C (centres undefined),T/C,"endpoint: mean survival time, dose: 12.5 mg/kg/injection, schedule: Q04DX003 (ip), vehicle: saline with Tween-80",101 % of control
same,T/C,[4],122 % of control
same,T/C,[5],101 % of control
same,T/C,[6],94 % of control
same,T/C,[7],90 % of control
CCC(=O)c1cccc([N+](=O)[O-])c1,T/C,[8],100 % of control
same,T/C,[9],96 % of control
same,T/C,[1],102 % of control
same,T/C,[10],104 % of control
same,T/C,[11],97 % of control
same,T/C,[2],102 % of control
same,T/C,[12],93 % of control
same,T/C,"endpoint: mean survival time, dose: 400.0 mg/kg/injection, schedule: Q01DX009 (ip), vehicle: saline with Tween-80",97 % of control
same,T/C,[3],98 % of control
CCCCCCC(C)c1cc(C)c(O)c(CN(C)C)c1 (centres undefined),T/C,[13],91 % of control
same,T/C,[6],95 % of control
C/C=C(\C)C(=O)OC1C(C)=C2C(C1OC(=O)CCCCC)C(C)(OC(C)=O)CC(OC(=O)CCC)C1(O)C2OC(=O)C1(C)O (centres undefined),T/C,"endpoint: median survival time, dose: 0.5 mg/kg/injection, schedule: Q01DX005 (ip), vehicle: Klucel (hydroxypropylcellulose) (HPC)",113 % of control
same,T/C,"endpoint: median survival time, dose: 1.0 mg/kg/injection, schedule: Q01DX005 (ip), vehicle: Klucel (hydroxypropylcellulose) (HPC)",118 % of control
same,T/C,"endpoint: median survival time, dose: 2.0 mg/kg/injection, schedule: Q01DX005 (ip), vehicle: Klucel (hydroxypropylcellulose) (HPC)",122 % of control
CC(C)=CCC/C(C)=C\CC1=C(O)c2ccccc2C(=O)C1=O,T/C,"endpoint: mean survival time, dose: 50.0 mg/kg/injection, schedule: Q01DX009 (ip), vehicle: other",96 % of control
same,T/C,"endpoint: mean survival time, dose: 100.0 mg/kg/injection, schedule: Q01DX009 (ip), vehicle: other",94 % of control
same,T/C,"endpoint: mean survival time, dose: 200.0 mg/kg/injection, schedule: Q01DX009 (ip), vehicle: other",95 % of control
COc1cccc(C(=O)NC[n+]2ccccc2)c1,T/C,[13],110 % of control
CCCCCCCCCCCC[N+]1(C)CCC[N+](C)(CCCCCCCCCCCC)CC1 (centres undefined),T/C,"endpoint: mean survival time, dose: 18.7 mg/kg/injection, schedule: Q01DX001 (ip), vehicle: saline with Tween-80",116 % of control
same,T/C,"endpoint: mean survival time, dose: 37.5 mg/kg/injection, schedule: Q01DX001 (ip), vehicle: saline with Tween-80",98 % of control
same,T/C,"endpoint: mean survival time, dose: 75.0 mg/kg/injection, schedule: Q01DX001 (ip), vehicle: saline with Tween-80",113 % of control and 101 % of control
COc1cc2c[n+](C)c3c(c2cc1OC)Cc1cc2c(cc1-3)OCO2,T/C,"endpoint: median survival time, dose: 6.0 mg/kg/injection, schedule: Q01DX009 (ip), vehicle: saline with Tween-80",122 % of control
same,T/C,"endpoint: median survival time, dose: 25.0 mg/kg/injection, schedule: Q01DX009 (ip), vehicle: saline with Tween-80",152 % of control and 162 % of control
same,T/C,"endpoint: median survival time, dose: 50.0 mg/kg/injection, schedule: Q01DX009 (ip), vehicle: saline with Tween-80",164 % of control and 168 % of control
same,T/C,"endpoint: median survival time, dose: 100.0 mg/kg/injection, schedule: Q01DX009 (ip), vehicle: saline with Tween-80",94 % of control
O=NN(CCCl)C(=O)Nc1cc(NC(=O)N(CCCl)N=O)cc(C(=O)O)c1,T/C,"endpoint: mean survival time, dose: 10.0 mg/kg/injection, schedule: Q04DX003 (ip), vehicle: saline with Tween-80",186 % of control
same,T/C,"endpoint: mean survival time, dose: 20.0 mg/kg/injection, schedule: Q04DX003 (ip), vehicle: saline with Tween-80",212 % of control
COC1CCC(/C=C(\C#N)C2CCC([N+](=O)[O-])CC2)CC1Br (centres undefined),T/C,"endpoint: mean survival time, dose: 25.0 mg/kg/injection, schedule: Q04DX002 (ip), vehicle: saline with Tween-80",105 % of control
same,T/C,"endpoint: mean survival time, dose: 50.0 mg/kg/injection, schedule: Q04DX002 (ip), vehicle: saline with Tween-80",96 % of control
Nc1cccc(C(=O)O)c1,T/C,[1],95 % of control
same,T/C,[2],94 % of control
same,T/C,[3],94 % of control
Cn1ccn(C2CCCCC2)c1=O,T/C,[14],98 % of control
same,T/C,[4],96 % of control
same,T/C,[15],101 % of control
same,T/C,[5],100 % of control
same,T/C,[9],95 % of control
same,T/C,[1],91 % of control and 93 % of control
Clc1cccc(-c2cc(-c3ccccc3)[nH]n2)c1,T/C,"endpoint: mean survival time, dose: 100.0 mg/kg/injection, schedule: Q01DX001 (ip), vehicle: saline sonified",95 % of control
same,T/C,"endpoint: mean survival time, dose: 200.0 mg/kg/injection, schedule: Q01DX001 (ip), vehicle: saline sonified",97 % of control
same,T/C,"endpoint: mean survival time, dose: 400.0 mg/kg/injection, schedule: Q01DX001 (ip), vehicle: saline sonified",97 % of control
CCCCCCCC[n+]1ccc(C#N)cc1,T/C,"endpoint: mean survival time, dose: 18.8 mg/kg/injection, schedule: Q01DX009 (ip), vehicle: saline",98 % of control
same,T/C,[16],93 % of control
CO[C@H](C(=O)[C@@H](O)[C@@H](C)O)[C@@H]1Cc2cc3cc(OC4CC(OC5CC(O)C(O)C(C)O5)C(O)C(C)O4)c(C)c(O)c3c(O)c2C(=O)[C@H]1OC1CC(OC2CC(OC3CC(C)(O)C(O)C(C)O3)C(O)C(C)O2)C(O)C(C)O1 (some centres undefined),T/C,"endpoint: mean survival time, dose: 0.13 mg/kg/injection, schedule: Q01DX009 (ip), vehicle: saline",95 % of control and 97 % of control and 101 % of control
same,T/C,"endpoint: mean survival time, dose: 0.25 mg/kg/injection, schedule: Q01DX009 (ip), vehicle: saline",95 % of control and 97 % of control and 103 % of control
same,T/C,"endpoint: mean survival time, dose: 0.5 mg/kg/injection, schedule: Q01DX009 (ip), vehicle: saline",93 % of control and 100 % of control and 105 % of control
same,T/C,"endpoint: mean survival time, dose: 0.5 mg/kg/injection, schedule: Q01DX Z (ip), vehicle: saline",124 % of control
same,T/C,"endpoint: mean survival time, dose: 1.0 mg/kg/injection, schedule: Q01DX009 (ip), vehicle: saline",101 % of control and 104 % of control and 107 % of control
Cc1ccc(Cl)cc1NC(=O)Nc1nccs1,T/C,"endpoint: mean survival time, dose: 50.0 mg/kg/injection, schedule: Q01DX009 (ip), vehicle: Klucel (hydroxypropylcellulose) (HPC)",91 % of control
same,T/C,"endpoint: mean survival time, dose: 100.0 mg/kg/injection, schedule: Q01DX009 (ip), vehicle: Klucel (hydroxypropylcellulose) (HPC)",91 % of control
same,T/C,"endpoint: mean survival time, dose: 200.0 mg/kg/injection, schedule: Q01DX009 (ip), vehicle: Klucel (hydroxypropylcellulose) (HPC)",102 % of control
CC(=O)N(C(C)=O)c1ccc2c3c(cccc13)CC2,T/C,[5],110 % of control
same,T/C,[1],104 % of control
same,T/C,[2],101 % of control
CC(=O)NC(C)(C)Cc1ccccc1,T/C,[8],101 % of control
same,T/C,[10],117 % of control
same,T/C,[12],106 % of control
CC(=O)c1ccc[n+](C)c1,T/C,[13],104 % of control
same,T/C,[6],104 % of control
CCOC(=O)c1ccccc1C(C)CC (centres undefined),T/C,"endpoint: mean survival time, dose: 75.0 mg/kg/injection, schedule: Q01DX001 (ip), vehicle: other",98 % of control
same,T/C,"endpoint: mean survival time, dose: 150.0 mg/kg/injection, schedule: Q01DX001 (ip), vehicle: other",97 % of control
same,T/C,"endpoint: mean survival time, dose: 300.0 mg/kg/injection, schedule: Q01DX001 (ip), vehicle: other",95 % of control
COc1cc2c(c(Oc3ccc(C)cc3)c1)CN(C)CC2,T/C,"endpoint: mean survival time, dose: 25.0 mg/kg/injection, schedule: Q04DX003 (ip), vehicle: saline",105 % of control
same,T/C,"endpoint: mean survival time, dose: 50.0 mg/kg/injection, schedule: Q04DX003 (ip), vehicle: saline",100 % of control
same,T/C,[13],105 % of control
CC1/C(=N/O)C(=O)c2ccccc21 (centres undefined),T/C,[15],102 % of control
same,T/C,[8],91 % of control
same,T/C,[9],86 % of control
same,T/C,[10],97 % of control
C[n+]1csc(=S)[nH]1,T/C,[13],105 % of control
same,T/C,[6],109 % of control
same,T/C,[7],114 % of control
CCCCCCCCCCCCCCCCOc1ccccc1NC(=O)CC(C)=O,T/C,[1],96 % of control
same,T/C,[2],94 % of control
same,T/C,[3],95 % of control
C=CCN(CC=C)CCSC(=S)NCCOC,T/C,[15],97 % of control
same,T/C,[9],113 % of control
same,T/C,[11],97 % of control
CCOC(=O)c1c(OC)cc2n(c1=O)Cc1cc3ccccc3nc1-2,T/C,[14],98 % of control
same,T/C,[15],98 % of control
same,T/C,[9],101 % of control
same,T/C,[1],90 % of control
CC[Si](CC)(CC)c1ccc(CCNCCS)s1,T/C,[16],107 % of control
same,T/C,"endpoint: mean survival time, dose: 75.0 mg/kg/injection, schedule: Q01DX009 (ip), vehicle: saline",101 % of control
